Data set [1] has as its system genomic loci with CTG repeat tracts. Nature of the data set: dCas9 chromatin immunoprecipitation (ChIP) in stable CTG repeat HeLa line. In kind it is binding, human. As to conditions: 960 CTG repeats; ChIP relative to control gRNA. Here is the method:
However, these experiments were performed using transiently transfected plasmids, which may not accurately model all aspects of transcriptional regulation in a genomic context. Furthermore, experiments to assess binding of protein complexes to DNA loci are most commonly performed using genomic targets and not plasmids. Therefore, a HeLa cell line was established in which transgenes for each of the 6 CTG repeat lengths, with associated barcodes, were stably integrated (FIG. 14B). To measure DNA binding by dCas9-gRNA complexes, chromatin immunoprecipitation (ChIP) was performed against dCas9 in the presence of (CAG)6 gRNA or non-targeting control gRNA. Similar to MBTA-Seq, the barcodes were deep sequenced to quantitate abundance of immunoprecipitated DNA encoding each repeat length. To confirm transcriptional repression in this cell line, RNA abundance was measured by MBTA-Seq following transfection of dCas9-gRNA complexes. It was observed that dCas9-gRNA binding to DNA increased as a function of repeat length, concomitant with a decrease in relative RNA abundance, when comparing (CAG)6 (SEQ ID NO: 1) gRNA to control (FIG. 7C). In a genomic context, dCas9-gRNA reduced the abundance of transcripts containing 960 CUG repeats (SEQ ID) NO: 24) to ˜20%, and was associated with ˜8-fold increased binding relative to genomic loci without CTG repeat tracts. […]

The subject of data set [2] is HeLa cells expressing (CUG)480 repeats. Nature of the data set: FISH-IF of CUG RNA foci in HeLa cell-based model of DM1. More on the design: species or system human. To be noted: with dCas9; vs control gRNA. The text has this: dCas9-mediated transcriptional inhibition rescues splicing defects and blocks RAN translation in cell-based models of DM and C9ALS/FTD. Downstream symptoms of many repeat expansion diseases are caused by the expression of toxic RNA species, which sequesters RNA binding proteins necessary for cellular functions, causing downstream changes to the transcriptome and proteome. To assess whether dGas9-mediated transcriptional silencing can rescue molecular and cellular phenotypes in disease models, a HeLa cell-based model of DM1 was used, in which (CUG)480 (SEQ ID NO:26) repeats are expressed from a plasmid. […] Rescue of MBNL-dependent splicing misregulation, characteristic of DM1 cells was measured, using a splicing minigene reporter containing MBNL1 exon 5. The percent spliced in (psi, Ψ) of this exon is regulated by MBNL proteins, and changes from 10% in healthy HeLa cells to −70% in cells expressing (CUG)480 repeats. Co-transfection of dCas9 and (CAG)6 (SEQ ID NO: 1) gRNA partially rescued splicing dysregulation, reducing Ψ to −35% (FIG. 8C). […] Splicing defects in DM1 depend on total CUG repeat load; Ψ values for MBNL1 exon 5 increased with the length of the CTG repeat tract transfected into cells (FIG. 8D).
Plasmid DNA transfections of HeLa and HEK293T cells were performed using Trans-IT LT1 (MirusBio) as per manufacturer's instructions. […]

Entries after “also recorded” stand apart in the source; their conditions may differ.

In the case of “(CAG)6 gRNA: guide RNA SEQ ID NO:1 targeting CTG repeats (non-template strand, CAG PAM), co-expressed with deactivated SpCas9 (guide CAGCAGCAGCAGCAGCAG; listed as DNA, chemistry not fully specified; listed as Mus musculus)”, the “increased dCas9-gRNA binding relative to genomic loci without CTG repeat tracts” value in data set [1] is approximately 8 fold. Also, in data set [2], the “number of foci per cell” value was “reduction in the number of foci per cell” and the “percentage of cells showing CUG-containing RNA foci” value is “reduction in the percentage of cells showing CUG-containing RNA foci; also recorded: reduction in the percentage of cells with RNA foci”.
